This passage reports IC50 and EC50 results from patent EP1006108A1, “3-Hydroxy-2(1H)-pyridinone or 3-hydroxy-4(1H)-pyridinone derivatives useful as reactive oxygen species (ROS) scavengers” (Cerebrus Pharmaceuticals Limited, priority 1998, dated 2000).

Where a name gives a salt, the structure may show the parent alone.

Experiment [1] deals with lipid peroxidation in rat brain homogenates. The experiment in a line: Lipid peroxidation assay (ascorbic acid induced, MDA/TBA readout). Particulars: concentration inhibiting lipid peroxidation by 50%; rat cortex preparation, 500-µM L-ascorbic acid, 37 °C for 30 min. It is filed as biochemical. As to the method: Lipid peroxidation in rat brain homogenates is a general procedure used to measure the antioxidant capacity of molecules in a biological environment (Das N.P. and Ratty A.K., Biochem. Med. Metab. Biol. 1987, 37, 256-264).
Rat cortex was homogenised in 20 vols. of ice cold 0.32-M sucrose and centrifuged at 1,000 g for 10 min. The pellet was discarded whilst the resulting supernatant was centrifuged at 15,000 g for 20 min at 4 °C to yield p2 pellets. The pellet was re-suspended in ice-cold 50.0-mM phosphate buffer and centrifuged at 30,000 g for 20 min at 4 °C. The pellet was re-suspended in 30 vols, of 50.0-mM phosphate buffer and used immediately in the assay.
Assays contained 500-µM L-ascorbic acid to induce lipid peroxidation, plus various concentrations of test compound, with the tissue preparation in a total volume of 500 µL. This was incubated at 37 °C for 30 min. Lipid peroxidation was measured by adding to the reaction mixture, 300 µL 40 % (w/v) trichloroacetic acid, 150 µL 5.0-M HCl and 300 µL 2 % (w/v) 2-thiobarbituric acid (TBA). Samples were then heated at 90 °C in a water bath for 15 min, and centrifuged at 15,000 g for 10 min. The pink colour of the supernatant was assessed spectrophotometrically at a wavelength of 532 nm. The amount of malondialdehyde (MDA) in the samples was calculated using a standard curve prepared with malondialdehyde tetrabutylammonium salt (Das, N.P. and Ratty, A.K. Biochem. Med. Metab. Biol. 1987, 37, 256-264).
The IC50 values show the concentration of test compound required to inhibit the lipid peroxidation by 50%.

The subject of experiment [2] is cerebellar granule cell (CGC) cultures. Nature of the experiment: Iodoacetate (IAA) induced cell death, MTT-reductase readout. It is filed as cell-based. The following applies: Cell Toxicity, 30-µM IAA for 30 min plus 10-µM MK-801, then test compound, 24 hour incubation. As to the method: After 6-8 days in culture, cerebellar granule cell (CGC) cultures in 96-well plates (250,000 cells per well) were prepared for hypoglycaemia. Iodoacetate (IAA) was made up in a balanced salt solution (BSS) (NaCI, 154.0-mM; KCl, 5.6-mM; MgCl2, 1.0-mM; CaCl2, 2.5-mM; N-[2-hydroxyethyl]piperazine-N'-[2-ethanesulfonic acid] (HEPES), 10.0-mM; D-glucose, 5.6-mM; pH 7.4) and any neuroprotective agents were made up in pre-warmed tissue culture media and allowed to equilibrate in a controlled environment (5 % CO2, 95 % air). The assay was initiated by aspiration of the maintenance media, which was replaced by either BSS (control) or 30-µM IAA in BSS, both solutions containing 10-µM of the NMDA receptor antagonist MK-801. The exposure to IAA was for 30 min only at 37 °C, after which time the BSS was aspirated and replaced with fresh, pre-equilibriated maintenance media containing various concentrations of test compound. All conditions were performed at least in duplicate in each 96 well plate. The final volume for each well was always 200 µL. Following a 24 hour incubation, visual inspection of the cells was followed by quantification of neuronal cell death by measuring 3-[4,5-dimethylthiazol-2-yl]-2,5-diphenyltetrazolium bromide (MTT)-reductase activity as described previously (Malcolm et al., J. Neurochem. 1996, 66, 2350-2360).

For another experiment, the system named is oxidation of DCFH to DCF. The experiment in a line: Measurement of intracellular oxidative stress (DCFH-DA fluorescence). Format: cell-based. The following applies: 0.5 h, concentration blocking oxidation of DCFH to DCF by 50%, 30.0-µM IAA, 30 minutes, read from Figure 1. As to the method: IAA-stimulated fluorescence values are given as a function of concentration of the test compound.
Intracellular oxidative stress was measured using the oxidant-sensitive fluorescent dye 2',7'-dichlorodihydrofluorescein diacetate (DCFH-DA) (Molecular Probes). The non-fluorescent DCFH-DA readily crosses cell membranes whereupon it is trapped within the cytoplasm by deacetylation to the non-membrane permeable form dichlorodihydrofluorescein (DCFH). Upon oxidation, DCFH yields the highly fluorescent product dichlorofluorescein (DCF). Briefly, growth medium was aspirated from cultures and replaced with 200 µl BSS (plus 10.0-µM MK-801) or BSS (plus 10.0-µM MK-801) containing 30.0-µM IAA alone or in combination with various concentrations of antioxidants. After incubation at 37 °C for 30 minutes, cultures were aspirated once more and 10.0-µM DCFH-DA (200 µL) added to all wells. After a further 20 minute incubation at 37 °C, fluorescence was measured in a Cytofluor II fluorescent plate reader (λex=485nm; λem=530nm). Background fluorescence values from wells treated with 2 % Triton X-100 were subtracted from both basal and stimulated fluorescence values and the effects of test compounds expressed as a percent inhibition of the IAA-stimulated fluorescence increase over basal.
The EC50 value gives the effective concentration of test compound required to block the oxidation of DCFH to DCF by 50%. […]

In experiment [1], “2-(1,4-Dihydro-3-hydroxy-2-methyl-4-oxo-1-pyridinyl)ethyl 3,4-dihydro-6-hydroxy-2,5,7,8-tetramethyl-2H-benzopyran-2-carboxylate [Example 3]” registered an IC50 of 1.5 µM. For the same molecule, the EC50 in experiment [2] is 1.8 µM.

Take `Cc1c(O)c(=O)ccn1CCC(=O)NCCCc1cc(C(C)(C)C)c(O)c(C(C)(C)C)c1` [Example 1, 3-(1,4-Dihydro-3-hydroxy-2-methyl-4-oxo-1-pyridinyl)-N-(3-(3,5-di-tert-butyl-4-hydroxyphenyl)propyl)propanamide]: it took 0.2 µM to reach half-maximal inhibition in experiment [1] (IC50). Besides, the EC50 in experiment [2] worked out at 0.3 µM.

`Cc1c(O)c(=O)ccn1CCNCc1cc(C(C)(C)C)c(O)c(C(C)(C)C)c1` [Example 2, 1-[2-(3,5-Di-tert-butyl-4-hydroxybenzylamino)ethyl]-3-hydroxy-2-methyl-4(1H)-pyridinone dihydrochloride]: the IC50 in experiment [1] turned out to be 0.2 µM. Moreover, the EC50 in experiment [2] was found to be 3.3 µM.

Consider `Cc1c(C)c2c(c(C)c1O)CCC(C)(CNC(=O)CCn1ccc(=O)c(O)c1C)O2` (stereo not drawn) [Example 5, 3-(1,4-Dihydro-3-hydroxy-2-methyl-4-oxo-1-pyridinyl)-N-(3,4-dihydro-6-hydroxy-2,5,7,8-tetramethyl-2H-benzopyran-2-yl)methylpropanamide], for which the IC50 in experiment [1] came out at 0.8 µM. Besides, in experiment [2], the EC50 stood at 2.6 µM.

Regarding `Cc1c(C)c2c(c(C)c1O)CCC(C)(COCCn1ccc(=O)c(O)c1C)O2` (stereo not drawn) [Example 6], half-maximal inhibition in experiment [1] (IC50) was put at 0.2 µM. Moreover, the EC50 in experiment [2] was about 3 µM.

As to `Cc1c(C)c2c(c(C)c1O)CCC(C)(CNCCCCn1ccc(=O)c(O)c1C)O2` (stereo not drawn) [Example 7, 1-[4-(3,4-Dihydro-6-hydroxy-2,5,7,8-tetramethyl-2H-benzopyran-2-yl)methylamino)butyl]-3-hydroxy-2-methyl-4(1H)-pyridinone dihydrochloride], the IC50 in experiment [1] was determined as 0.1 µM. The EC50 in experiment [2] stood at 0.6 µM.

In experiment [1], `Cc1c(C)c2c(c(C)c1O)CC(CC(=O)NCCn1ccc(=O)c(O)c1C)O2` (stereo not drawn) [Example 8, N-(2-(1,4-Dihydro-3-hydroxy-2-methyl-4-oxo-1-pyridinyl)ethyl)-2,3-dihydro-5-hydroxy-4,6,7-trimethylbenzofuran-2-acetamide] registered an IC50 of 0.5 µM. Moreover, in experiment [2], the concentration giving a half-maximal response (EC50) turned out to be 3.8 µM.

`Cc1c(C)c2c(c(C)c1O)CC(CC(=O)OCCn1ccc(=O)c(O)c1C)O2` (stereo not drawn) [Example 9, 2-(1,4-Dihydro-3-hydroxy-2-methyl-4-oxo-1-pyridinyl)ethyl 2,3-dihydro-5-hydroxy-4,6,7-trimethylbenzofuran-2-acetate]: the IC50 in experiment [1] came out at 0.4 µM. In addition, the EC50 in experiment [2] stood at 1.6 µM.

For `Cc1c(C)c2c(c(C)c1O)CC(CCOC(=O)CCn1ccc(=O)c(O)c1C)O2` (stereo not drawn) [Example 10, 2-(2,3-Dihydro-5-hydroxy-4,6,7-trimethylbenzofuran-2-yl)ethyl 3-(1,4-dihydro-3-hydroxy-2-methyl-4-oxo-1-pyridinyl)propanoate], the EC50 in the experiment on oxidation of DCFH to DCF was 0.8 µM; in experiment [2], about 5.3 µM. In addition, half-maximal inhibition in experiment [1] (IC50) required 0.2 µM.

As for “N-(2-(1,4-Dihydro-3-hydroxy-2-methyl-4-oxo-1-pyridinyl)ethyl)-3,4-dihydro-6-hydroxy-2,5,7,8-tetramethyl-2H-benzopyran-2-carboxamide [Example 4]”, inhibition in experiment [1] was half-maximal at 1 µM (IC50). In experiment [2], the EC50 turned out to be 1.8 µM.
